Key:
src^ts -NRK cells = test: Cell toxicity in src^ts-NRK cells; type: cell-based, Rat; conditions: 50 μg/ml, 32° C.
mouse epithelial cells = test: Cell toxicity in mouse epithelial cells; type: cell-based; conditions: 50 μg/ml
Acute toxicity = conditions: mouse, in vivo, iv
TGF-α = conditions: background art; cited from earlier work
[1] = background art; cited from earlier work

CCCC[C@@]1(OC(=O)CCC(=O)O)CC[C@]2(CC[C@H](C)[C@@H](C/C=C(C)/C=C/[C@H](O)[C@@H](C)/C=C/C(=O)O)O2)O[C@H]1/C=C/C(C)=C/C(=O)O [Reveromycin A]
cell toxicity (src^ts -NRK cells): observed
Solubility (Solubility; aqueous acidic solution): insoluble
Solubility (Solubility; dimethylsulfoxide, ethyl acetate, and methanol): easily soluble
cell toxicity (mouse epithelial cells): observed
LD50 (Acute toxicity): ≥ 100 mg/kg

O=CN/C=C/c1cc(O)ccc1O [Erbstatin]
potency (TGF-α): not sufficiently potent
effect in blood [1]: lose their effects in blood

Reference: patent US5322854A, “Reveromycin A, method for preparing the same, and antitumor agent and antifungal agent comprising the same” (Rikagaku Kenkyusho, priority 1990, dated 1994)
